In patent US20240279205A1, “NOVEL BENZIMIDAZOLE DERIVATIVE” (Carna Biosciences, Inc., priority 2020, published 2024):
pIC50: −log10 of the molar value. Structures can show the parent of a compound that is named as a salt.

Key:
human STING (hSTING) = molecular target: T1, human STING (hSTING) (Homo sapiens, UniProt Q86WV6); assay: Inhibition test of intracellular human STING (hSTING) pathway using SEAP reporter cells (HEK-Blue ISG), stimulation with Compound 3; format: cell-based; design: hSTING inhibitory activity: scale not given here; details: Compound 3 10 nM stimulation, 21 hours; for pIC50: read-out: hSTING inhibitory activity
T1 construct: host or cells: HEK-Blue ISG cells (HEK293-derived SEAP reporter line)
Procedure, shortened: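 HEK-Blue ISG cells with IRF-inducible SEAP reporter, pretreated 1 h with compound (final 0.1 to 10 μM), then stimulated with Compound 3 (final 10 nM) for 21 h at 37° C. Supernatant SEAP measured colorimetrically; IC50 from log-concentration regression, normalized to stimulated (100%) and unstimulated (0%) controls.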

[1] = tested on: STING activation (IFN-β production in THP-1 cells); assay: Human IFN-β production inhibition test by cGAMP stimulation in THP-1 cells; format: cell-based; design: IFN-β bioinhibitory activity: scale not given here; details: 2'3'-cGAMP transfection, 18 hours, IFN-β ELISA; for pIC50: Homo sapiens, read-out: IFN-β bioinhibitory activity
Method: Human IFN-β production inhibition test by cGAMP stimulation
The inhibitory activity of test compounds against STING activation was evaluated by measuring the amount of IFN-β produced when human monocytic cell line THP-1 cells were stimulated with the endogenous ligand cGAMP.
After seeding THP-1 cells (ATCC) in a 96-well plate, PMA (Santa Cruz Biotechnology) adjusted to a concentration of 100 nM after addition was added, and incubated at 37° C. in a 5% CO2 incubator. It was cultured overnight (RPMI1640 medium containing 10% FBS, 50 U/mL penicillin/50 μg/mL streptomycin). A test compound solution adjusted to a final concentration of 0.001 to 1 μM was added to each well of this plate and cultured for 1 hour in a CO2 incubator (DMSO final concentration 0.1%). 0.12 μg/well of 2′3′-cGAMP (Invivogen, #tlrl-nacga23) was introduced into the cells by transfection using Lipofectamine2000 (Invitrogen) and cultured in a CO incubator for an additional 18 hours. After collecting the culture supernatant from each well, the amount of human IFN-β produced in the culture supernatant was measured by ELISA using R&D human IFN-β Duoset (R&D Systems).
Assuming that the human IFN-β production amount of the test compound-free and cGAMP-added group is 100%, and the human IFN-β production amount of the test compound-free and cGAMP-free group is 0%, the IC50 value was determined by regression analysis of the inhibitory rate determined from the amount of human IFN-β production at each compound concentration and the concentration of the test compound (logarithm).

T1 sequence (Q86WV6 whole entry H232R): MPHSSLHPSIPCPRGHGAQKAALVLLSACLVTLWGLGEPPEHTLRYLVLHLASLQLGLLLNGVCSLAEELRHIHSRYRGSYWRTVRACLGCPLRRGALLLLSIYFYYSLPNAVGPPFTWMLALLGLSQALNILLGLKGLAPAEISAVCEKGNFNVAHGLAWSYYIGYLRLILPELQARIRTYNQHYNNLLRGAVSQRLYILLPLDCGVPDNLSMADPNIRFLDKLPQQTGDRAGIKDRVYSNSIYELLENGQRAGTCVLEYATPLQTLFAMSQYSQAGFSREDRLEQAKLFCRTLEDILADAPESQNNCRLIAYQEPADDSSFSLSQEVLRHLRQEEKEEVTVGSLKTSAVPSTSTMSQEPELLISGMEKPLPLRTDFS

Row | SMILES | hSTING inhibitory activity (human STING (hSTING)) | pIC50 [1] | pIC50 (human STING (hSTING)) | IFN-β bioinhibitory activity [1]
1 | Clc1ccc2[nH]cc(Nc3nc4cc(I)ccc4[nH]3)c2n1 [Embodiment 124, N-(5-Chloro-1H-pyrrolo[3,2-b]pyridin-3-yl)-5-iodo-1H-benzo[d] imidazol-2-amine] | * * | – | – | * * *
2 | Clc1ccc2[nH]cc(Nc3nc4cc(C#CC5CC5)ccc4[nH]3)c2n1 [Embodiment 125, N-(5-Chloro-1H-pyrrolo[3,2-b]pyridin-3-yl)-5-(cyclopropylethynyl)-1H-benzo[d]imidazol-2-amine] | * * | 6.00 to 7.00 | – | –
3 | Clc1ccc2[nH]cc(Nc3nc4c(N5CCCCC5)cccc4[nH]3)c2n1 [Embodiment 127, N-(5-Chloro-1H-pyrrolo[3,2-b]pyridin-3-yl)-4-(piperidin-1-yl)-1H-benzo[d]imidazol-2-amine] | * * | – | – | * *
4 | CC(C)=Cc1ccc2[nH]c(Nc3c[nH]c4ccc(Cl)nc34)nc2c1 [Embodiment 128, N-(5-chloro-1H-pyrrolo[3,2-b]pyridin-3-yl)-5-(2-methylprop-1-en-1-yl)-1H-benzo[d]imidazole-2-amine] | * * | – | – | * * *
5 | Clc1ccc2[nH]cc(Nc3nc4cc(C5CC5)ccc4[nH]3)c2n1 [Embodiment 129, N-(5-Chloro-1H-pyrrolo[3,2-b]pyridin-3-yl)-5-cyclopropyl-1H-benzo[d]imidazol-2-amine] | * * | – | – | * *
6 | N#Cc1ccc2[nH]cc(Nc3nc4cc(Oc5ccccc5)ccc4[nH]3)c2n1 [Embodiment 130, 3-[(5-phenoxy-1H-benzo[d]imidazol-2-yl)amino]-1H-pyrrolo[3,2-b] pyridine-5-carbonitrile] | * * | ≤ 6.00 | – | –
7 | CC(C)Cc1ccc2[nH]c(Nc3c[nH]c4ccc(Cl)nc34)nc2c1 [Embodiment 131, N-(5-Chloro-1H-pyrrolo[3,2-b]pyridin-3-yl)-5-isobutyl-1H-benzo [d]imidazol-2-amine formate] | * * | – | – | * *
8 | C#Cc1ccc2[nH]c(Nc3c[nH]c4ccc(Cl)nc34)nc2c1 [Embodiment 133, N-(5-Chloro-1H-pyrrolo[3,2-b]pyridin-3-yl)-5-ethynyl-1H-benzo[d] imidazol-2-amine formate] | * * | – | – | * * *
9 | CC#Cc1ccc2[nH]c(Nc3c[nH]c4ccc(Cl)nc34)nc2c1 [Embodiment 136, N-(5-Chloro-1H-pyrrolo[3,2-b]pyridin-3-yl)-5-(prop-1-yn-1-yl)-1H-benzo[d]imidazole-2-amine] | * * | 6.00 to 7.00 | – | –
10 | C=C(C)c1ccnc2c(Nc3nc4cc(Oc5ccccc5)ccc4[nH]3)c[nH]c12 [Embodiment 144, 5-phenoxy-N-[7-(prop-1-en-2-yl)-1H-pyrrolo[3,2-b]pyridin-3-yl]-1H-benzo[d]imidazole-2-amine] | * * | ≤ 6.00 | – | –
11 | COCC#Cc1ccc2[nH]c(Nc3c[nH]c4ccc(Cl)nc34)nc2c1 [Embodiment 145, N-(5-Chloro-1H-pyrrolo[3,2-b]pyridin-3-yl)-5(3-methoxyprop-1-yn-1-yl)-1H-benzo[d]imidazole-2-amine] | * * | 6.00 to 7.00 | – | –
12 | Clc1ccc2[nH]cc(Nc3nc4c(C5=CCOCC5)cccc4[nH]3)c2n1 [Embodiment 149, N-(5-chloro-1H-pyrrolo[3,2-b]pyridin-3-yl)-4-(3,6-dihydro-2H-pyran-4-yl)-1H-benzo[d]imidazol-2-amine] | – | 6.00 to 7.00 | 5.00 to 6.00 | –
13 | Clc1ccc2[nH]cc(Nc3nc4cc(N5CCCCC5)ccc4[nH]3)c2n1 [Embodiment 151, N-(5-Chloro-1H-pyrrolo[3,2-b]pyridin-3-yl)-5-(piperidin-1-yl)-1H-benzo[d]imidazol-2-amine] | * * | 6.00 to 7.00 | – | –
14 | Cn1c(Nc2c[nH]c3ccc(Cl)nc23)nc2c(N3CCCCC3)cccc21 [Embodiment 157, N-(5-chloro-1H-pyrrolo[3,2-b]pyridin-3-yl)-1-methyl-4-(piperidin-1-yl)-1H-benzo[d]imidazole-2-amine formate] | * * | 6.00 to 7.00 | – | –
15 | CC(C)Oc1ccc2[nH]c(Nc3c[nH]c4ccc(Cl)nc34)nc2c1 [Embodiment 158, N-(5-Chloro-1H-pyrrolo[3,2-b]pyridin-3-yl)-5-isopropoxy-1H-benzo [d]imidazol-2-amine] | * * | 6.00 to 7.00 | – | –
16 | COc1ccc2c(c1)nc(Nc1c[nH]c3ccc(Cl)nc13)n2C [Embodiment 159, N-(5-Chloro-1H-pyrrolo[3,2-b]pyridin-3-yl)-5-methoxy-1-methyl-1H-benzo[d]imidazol-2-amine] | – | 6.00 to 7.00 | 5.00 to 6.00 | –

Continued, in another order:

Row | hSTING inhibitory activity (human STING (hSTING)) | pIC50 [1] | pIC50 (human STING (hSTING)) | SMILES | IFN-β bioinhibitory activity [1]
17 | * * * | 6.00 to 7.00 | – | Fc1cc2nc(Nc3c[nH]c4ccc(Cl)nc34)[nH]c2cc1C(F)(F)F [Embodiment 160, N-(5-Chloro-1H-pyrrolo[3,2-b]pyridin-3-yl)-5-fluoro-6-(trifluoromethyl)-1H-benzo[d]imidazol-2-amine] | –
18 | – | – | 5.00 to 6.00 | Cn1c(Nc2c[nH]c3ccc(Cl)nc23)nc2cc(Br)ccc21 [Embodiment 169, 5-bromo-N-(5-chloro-1H-pyrrolo [3,2-b]pyridin-3-yl)-1-methyl-1H-benzo[d]imidazol-2-amine] | * *
19 | – | ≤ 6.00 | ≤ 5.00 | COCCn1c(Nc2c[nH]c3ccc(Cl)nc23)nc2cc(C(F)(F)F)ccc21 [Embodiment 178, N-(5-chloro-1H-pyrrolo[3,2-b]pyridin-3-yl)-1-(2-methoxyethyl)-5-(trifluoromethyl)-1H-benzo[d]imidazol-2-amine] | –
20 | * * | – | – | Cn1c(Nc2c[nH]c3ccc(Cl)cc23)nc2cc(F)ccc21 [Embodiment 185, N-(5-Chloro-1H-indol-3-yl)-5-fluoro-1-methyl-1H-benzo[d]imidazol-2-amine formate] | * * *
21 | – | 6.00 to 7.00 | 5.00 to 6.00 | FC(F)(F)c1ccc2c(c1)nc(Nc1c[nH]c3ccc(Cl)nc13)n2C1CC1 [Embodiment 186, N-(5-Chloro-1H-pyrrolo[3,2-b]pyridin-3-yl)-1-cyclopropyl-5-(trifluoromethyl)-1H-benzo[d] imidazol-2-amine] | –
22 | * * | 6.00 to 7.00 | – | Fc1ccc(Oc2ccc3nc(Nc4c[nH]c5ccc(Cl)nc45)n(C4CC4)c3c2)cc1 [Embodiment 187, N-(5-chloro-1H-pyrrolo[3,2-b]pyridin-3-yl)-1-cyclopropyl-6-(4-fluorophenoxy)-1H-benzo[d] imidazole-2-amine] | –
23 | * * | 6.00 to 7.00 | – | C=Cc1ccc2[nH]cc(Nc3nc4ccc(Oc5ccc(F)cc5)cc4n3C3CC3)c2n1 [Embodiment 188, 1-Cyclopropyl-6-(4-fluorophenoxy)-N-(5-vinyl-1H-pyrrolo[3,2-b]pyridin-3-yl)-1H-benzo[d]imidazole-2-amine] | –
24 | * * | 6.00 to 7.00 | – | Fc1ccc2c(c1)nc(Nc1c[nH]c3ccc(Cl)cc13)n2C1CC1 [Embodiment 189, N-(5-Chloro-1H-indol-3-yl)-1-cyclopropyl-5-fluoro-1H-benzo[d] imidazol-2-amine] | –
25 | – | ≤ 6.00 | 5.00 to 6.00 | CCc1ccc2[nH]cc(Nc3nc4ccc(Oc5ccc(F)cc5)cc4n3C3CC3)c2n1 [Embodiment 190, 1-Cyclopropyl-N-(5-ethyl-1H-pyrrolo[3,2-b]pyridin-3-yl)-6-(4-fluorophenoxy)-1H-benzo[d]imidazole-2-amine formate] | –
26 | * * | 6.00 to 7.00 | – | C=Cc1ccc2[nH]cc(Nc3nc4ccc(Oc5ccc(F)cc5)cc4n3C)c2n1 [Embodiment 191] | –
27 | * * | 6.00 to 7.00 | – | CCc1ccc2[nH]cc(Nc3nc4ccc(Oc5ccc(F)cc5)cc4n3C)c2n1 [Embodiment 192, N-(5-ethyl-1H-pyrrolo[3,2-b]pyridin-3-yl)-6-(4-fluorophenoxy)-1-methyl-1H-benzo[d]imidazole-2-amine formate] | –
28 | * * * | – | – | Cn1c(Nc2c[nH]c3ccc(Cl)cc23)nc2ccc(Oc3ccc(F)cc3)cc21 [Embodiment 195, N-(5-Chloro-1H-indol-3-yl)-6-(4-fluorophenoxy)-1-methyl-1H-benzo[d]imidazol-2-amine] | * *
